Assay results published in patent US12648952B2, “Methods of treatment using ICAM-modulating agents” (AVM Biotechnology, LLC, priority 2020, dated 2026).

Tests used:
[1] = cited from earlier work
whole blood [2] = assay: Ex vivo whole blood incubation, immune cell numbers (Study 6); type: cell-based, mouse or human
Procedure: The profound in vivo activity that is observed in naïve mice and in cancer models must therefore be mediated through the mobilized supercharged Natural Killer T cells, T cells and dendritic cells after AVM0703 HED 6 mg/kg and higher.

splenocytes = assay: Ex vivo splenocyte viability by flow cytometry (Study 24); type: cell-based, mouse
Procedure: Splenocytes were cultured for 16 hours prior to assay execution.

whole blood [3] = assay: Ex vivo glucocorticoid comparison, whole blood CBC analysis; type: cell-based; settings: overnight, room temperature
[4] = test system: lymphocytes, monocytes, NKT cells, T cells, dendritic cells; assay: In vivo immune cell mobilisation and ablation after high dose glucocorticoid; parameters: species or system mice; settings: HED 15 mg/kg and higher
Source text: High doses of glucocorticoid exert powerful biological effects that will contribute to the treatment of lymphocyte-mediated diseases and cancers, as well as microbial diseases. […] This cell type is discussed in greater detail below.
CD4CD8 double positivity on CD3 T lymphocytes indicates a cytotoxic T cell. […] In vivo only lymphocytes, monocytes, some neutrophils and cancer cells have been ablated.
AVM_NKT cells are NKp46+ and Ly6G positive, indicating the potential to directly kill targets as well as to engulf them. The typical AVM_NKT summarized above are not CD1d restricted. […] In vivo, glucocorticoids ablate lymphocytes other than NK and NKT cells, and monocytes, within 6 hours after oral dosing of naïve mice. In tumor models the novel NKT and T cell are not observed in the blood. However, within 48 hours of dosing NKp46+ cells and Ly6G+ cells, which are not macrophages as they are negative for F4/80, can be found in formations within the tumors, surrounding regions of remaining viable tumor. This indicates the functional potency of these cells. In the tumor setting, the AVM novel immune cells are not observed in the blood. They appear to preferentially home to the abnormal cells, in this case cancer cells, and circulating normal monocytes and neutrophils are not depleted as they are in the naïve setting.

[5] = ex vivo or in vitro concentrations equal to peak blood concentrations of HED 7-15 mg/kg or greater

Q: With `C[C@]12C=CC(=O)C=C1CC[C@@H]1[C@@H]2C(=O)C[C@@]2(C)[C@H]1CC[C@]2(O)C(=O)CO` [prednisone] as the compound, how does the biologic half-life [1] read?
A: about 20 hours

Q: For `C[C@@H]1C[C@H]2[C@@H]3CCC4=CC(=O)C=C[C@]4(C)[C@@]3(F)[C@@H](O)C[C@]2(C)[C@@]1(O)C(=O)CO` [dexamethasone base], which “response of ex vivo whole blood” value (whole blood [2]; 100 uM up to 500 uM) is on record?
A: no response

Q: And the “numbers of lymphocytes, monocytes, eosinophils, basophils in whole blood” value (whole blood [2]; 500 μM dexamethasone base or 50 RU486, 16 hr, room temperature)?
A: no change in numbers

Q: And the “lymphocyte-killing activity in whole blood” value (whole blood [2]; 500 μM dexamethasone base or 50 RU486 alone)?
A: does not induce the lymphocyte-killing activity seen in in vivo experiments

Q: And the “response of isolated splenocytes” value (splenocytes; 100 uM up to 500 uM)?
A: no response

Q: What about the “concentrations that do not trigger splenocyte cell death” value (splenocytes; after 4 hours) of the same compound?
A: above 100 μM

Q: What about the “concentrations with direct killing activity on splenocytes” value (splenocytes; after 4 hours) of the same compound?
A: lower than 100

Q: For `C[C@@H]1C[C@H]2[C@@H]3CCC4=CC(=O)C=C[C@]4(C)[C@@]3(F)[C@@H](O)C[C@]2(C)[C@@]1(O)C(=O)COP(=O)(O)O` [dexamethasone phosphate], which “direct apoptotic effect on whole blood” value (whole blood [2]; [5]) is on record?
A: no direct apoptotic effect

Q: What about the “direct apoptotic effect on splenocytes” value (splenocytes; [5]) of the same compound?
A: no direct apoptotic effect

Q: And the “differences between dexamethasone formulations in ex vivo CBC analysis” value (whole blood [3])?
A: no noticeable differences

Q: What about the “in vivo effects on colon, pancreas or bone” value [4] of the same compound?
A: no effects on colon, pancreas or bone

Q: What about the “induction of CD3-very-high T cells and CD11b-very-high dendritic cells” value [4] of the same compound?
A: CD11b-very-high dendritic cells are also induced
